The test system of data set [1] is Serratia marcescens. As to the kind of experiment: Bactericidal activity against Serratia marcescens ATCC 13880 assessed as reduction in bacterial viability at 100 uM incubated for 2 hrs in autoclaved distilled water followed by culturing on agar for overnight. The format is functional.
The subject of data set [2] is Panel NCI-60 (60 carcinoma cell lines). As to the kind of experiment: Antitumor activity against human NCI-60 cells assessed as inhibition of cell growth at 10 uM incubated for 48 hrs by SRB assay. The format is functional. On the technique in general: The SRB assay estimates cell density from bound dye.
A short description of data set [3]: Cytotoxicity against human HDF cells assessed as reduction in cell viability at 50 uM incubated for 24 hrs by MTT assay relative to control. The format is toxicity, cell-based. The following applies: HDF cells (NHDF cell line), read-out: INH. A general note: Tetrazolium dyes change colour on reduction, which living cells bring about.
Data set [4] is described as follows: Dissociation constant, pKa of the compound. The format is physicochemical.
Data set [5] has as its system Escherichia coli. Description: Bactericidal activity against Escherichia coli K1 MTCC 710859 assessed as reduction in bacterial viability at 100 uM incubated for 2 hrs in autoclaved distilled water followed by culturing on agar for overnight. The format is functional. Conditions: for inhibition at 100 µM: K1 MTCC 710859, 2 h.
The subject of data set [6] is Salmonella enterica. As to the kind of experiment: Bactericidal activity against Salmonella enterica ATCC 14028 assessed as reduction in bacterial viability at 100 uM incubated for 2 hrs in autoclaved distilled water followed by culturing on agar for overnight. The format is functional. Conditions: ATCC 14028, 2 h.
Data set [7] concerns Streptococcus pyogenes. Description: Bactericidal activity against Streptococcus pyogenes ATCC 49399 assessed as reduction in bacterial viability at 100 uM incubated for 2 hrs in autoclaved distilled water followed by culturing on agar for overnight. The format is functional. Conditions: for inhibition at 100 µM: ATCC 49399, 2 h.
Data set [8] concerns Streptococcus pneumoniae. Description: Bactericidal activity against Streptococcus pneumoniae ATCC 13883 assessed as reduction in bacterial viability at 100 uM incubated for 2 hrs in autoclaved distilled water followed by culturing on agar for overnight. The format is functional. The following applies: for inhibition at 100 µM: ATCC 13883, 2 h.
In data set [9] the test system is Bacillus cereus. As to the kind of experiment: Bactericidal activity against Bacillus cereus MTCC 131621 assessed as reduction in bacterial viability at 100 uM incubated for 2 hrs in autoclaved distilled water followed by culturing on agar for overnight. The format is functional. The following applies: MTCC 131621, 2 h.
For data set [10], the system named is Escherichia coli. As to the kind of experiment: Bactericidal activity against Escherichia coli K1 MTCC 710859 assessed as reduction in bacterial viability incubated for 2 hrs in autoclaved distilled water followed by culturing on agar for overnight. The format is functional. The following applies: K1 MTCC 710859, 2 h.
In data set [11] the test system is Streptococcus pyogenes. Description: Bactericidal activity against Streptococcus pyogenes ATCC 49399 assessed as reduction in bacterial viability incubated for 2 hrs in autoclaved distilled water followed by culturing on agar for overnight. The format is functional. Conditions: ATCC 49399, 2 h.
Data set [12] relates to Streptococcus pneumoniae. Description: Bactericidal activity against Streptococcus pneumoniae ATCC 13883 assessed as reduction in bacterial viability incubated for 2 hrs in autoclaved distilled water followed by culturing on agar for overnight. The format is functional. Conditions: ATCC 13883, 2 h.
Data set [13] relates to Bacillus cereus. Description: Bactericidal activity against Bacillus cereus MTCC 131621 assessed as reduction in bacterial viability incubated for 2 hrs in autoclaved distilled water followed by culturing on agar for overnight. The format is functional. Conditions: MTCC 131621, 2 h.
The subject of data set [14] is Bacillus cereus. Description: Antibacterial activity against Bacillus cereus assessed as reduction in bacteria-mediated cytopathogenicity pretreated with bacteria followed by incubation with human cells. The format is functional. A general note: Damage to the host cells serves as the signal in cytopathic effect assays.
For data set [15], the system named is Salmonella enterica. Description: Antibacterial activity against Salmonella enterica assessed as reduction in bacteria-mediated cytopathogenicity pretreated with bacteria followed by incubation with human cells. The format is functional.
Data set [16] relates to NHDF. As to the kind of experiment: Cytotoxicity against human HDF cells assessed as reduction in cell viability at 50 uM incubated for 24 hrs by MTT assay. The format is toxicity, cell-based.
In data set [17] the test system is DNA. As to the kind of experiment: Binding affinity to minor groove of d(5'-GCGACTAGTCGC3')2 duplex DNA (unknown origin) assessed as change in melting temperature at 2 equiv. in presence of 8 uM DNA measured at 30 to 100 degC by UV spectrophotometric analysis. The format is nucleic-acid assay.
Data set [18] deals with Salmonella enterica. As to the kind of experiment: Bactericidal activity against Salmonella enterica ATCC 14028 assessed as reduction in bacterial viability incubated for 2 hrs in autoclaved distilled water followed by culturing on agar for overnight. The format is functional. Conditions: ATCC 14028, 2 h.
The test system of data set [19] is DNA. As to the kind of experiment: Binding affinity to d(5'-GCGACTAGTCGC-3')2 duplex DNA (unknown origin) at 10 uM measured at 298K by isothermal titration calorimetry. The format is nucleic-acid assay.
Data set [20] relates to DNA. As to the kind of experiment: Binding affinity to d(5'-GCGACTAGTCGC-3')2 duplex DNA (unknown origin) assessed as change in enthalpy at 10 uM measured at 298K by isothermal titration calorimetry. The format is nucleic-acid assay.
Data set [21] relates to DNA. As to the kind of experiment: Binding affinity to d(5'-GCGACTAGTCGC-3')2 duplex DNA (unknown origin) assessed as change in entropy at 10 uM measured at 298K by isothermal titration calorimetry. The format is nucleic-acid assay.
Data set [22] deals with DNA. As to the kind of experiment: Binding affinity to d(5'-GCGACTAGTCGC-3')2 duplex DNA (unknown origin) assessed as change in free energy at 10 uM measured at 298K by isothermal titration calorimetry. The format is nucleic-acid assay.
Data set [23] deals with DNA. As to the kind of experiment: Binding affinity to d(5'-GCGACTAGTCGC-3')2 duplex DNA (unknown origin) at DNA to ligand stoichiometric ratio of 0.5:1 measured at 298K by isothermal titration calorimetry. The format is nucleic-acid assay.
In data set [24] the test system is Serratia marcescens. Description: Bactericidal activity against Serratia marcescens ATCC 13880 assessed as reduction in bacterial viability incubated for 2 hrs in autoclaved distilled water followed by culturing on agar for overnight. Conditions: ATCC 13880, 2 h. The format is functional.

For orientation: inhibition means the drop in the measured response relative to a control, in per cent. By pKa is commonly meant the negative logarithm of the acid dissociation constant. As usually defined, the MIC90 is an inhibitory concentration at the 90% level, which refers to growth in some studies and to a panel of isolates in others. The MIC50 is the lowest concentration that inhibits either 50% of growth or 50% of the strains tested, depending on the study. For orientation: ΔTm means the change in melting temperature against a reference sample.

Converted amounts (≈) assume the structure as drawn. The source made the active and inactive calls. The calls are words filed in the database; no cut-off is given here.

Consider `Cn1cc(NC(=O)c2cc(NC(=O)CCSc3ccc4ccccc4c3)cn2C)cc1C(=O)NCCCN1CCOCC1`, for which the outcome in data set [1] was inactive. In data set [2], the inhibition at 10 µM is 7.46%. In addition, the cytotoxicity at 24 h, 50 µM in [3] amounted to 20%. The pKa in data set [4] amounted to 7.01.

Consider `Cn1cc(NC(=O)c2cc(NC(=O)c3ccc(/C=C/c4ccccc4)cc3)cn2C)cc1C(=O)NCCCN1CCOCC1`, for which the inhibition at 100 µM was found to be 50% in data set [5]; 95% in data set [6]; 67% in [7]; 100% in data set [8]; 87% in data set [9]. Further, the result in data set [1] was inactive. For the same compound, the MIC90 was found to be 76 µM (≈ 45.2 µg/mL) in data set [10], 55 µM (≈ 32.7 µg/mL) in data set [11], 47 µM (≈ 28 µg/mL) in [12] and 34.3 µM (≈ 20.4 µg/mL) in data set [13]. The MIC50 in [13] was 37 µM (≈ 22 µg/mL). Besides, the “inhibition (INH)” value in data set [14] turned out to be 70%; in data set [15], 44%. Besides, the inhibition at 10 µM in data set [2] was 94.1%. The Activity result in [16] is “Non-Toxic”. Moreover, the ΔTm in [17] was found to be 21 °C. Also, in data set [4], the pKa was determined as 7.01.

Turning to `CN(C)CCCNC(=O)c1cc(NC(=O)c2cc(NC(=O)c3ccc(/C=C/c4ccccc4)cc3)cn2C)cn1C`, the inhibition at 10 µM in [2] is 64.1%. Further, the Activity entry in [16] is “Toxic”. The same compound displayed a pKa in data set [4] of 9.3.

With `CN(C)CCCNC(=O)c1cc(NC(=O)c2cc(NC(=O)c3cc(NC(=O)c4nccn4C)cn3C)cn2C)cn1C`, the inhibition at 10 µM in [2] is -3.79%. Further, in data set [16], the Activity entry is “Toxic”. The compound also yielded a pKa in data set [4] of 9.3.

As to `CC(C)c1sc(NC(=O)c2cc(NC(=O)c3cc(NC(=O)c4nccn4C)cn3C)cn2C)nc1C(=O)NCCCN(C)C`, the outcome in [5], in data set [1] and in data set [7] was inactive. In addition, the inhibition at 100 µM in data set [6] amounted to 60%; in [8], 60%; in data set [9], 63%. Besides, the MIC50 is 64 µM (≈ 39.9 µg/mL) in data set [18] and 28 µM (≈ 17.4 µg/mL) in data set [13]. Also, the results for the MIC90 in data set [18], in data set [12] and in data set [13] were 101 µM (≈ 62.8 µg/mL), 67 µM (≈ 41.7 µg/mL) and 33.7 µM (≈ 21 µg/mL), respectively. Moreover, the “inhibition (INH)” value is 90% in data set [14] and 77% in data set [15]. In addition, the inhibition at 10 µM in data set [2] turned out to be 24.1%. Besides, the cytotoxicity at 24 h, 50 µM in [3] is 20%. In addition, in data set [17], the shift in melting temperature (ΔTm) is 18 °C. The K in data set [19] was 1.42 10^6/M. Also, the deltaH in data set [20] is -20.6 kcal/mol. Further, in [21], the TdeltaS was -12.2 kcal/mol. In addition, the deltaG in data set [22] was -8.41 kcal/mol. Moreover, in data set [23], the result was Active. This compound also showed a pKa in data set [4] of 9.3.

As for `CC(C)c1sc(NC(=O)c2cc(NC(=O)c3cc(NC(=O)c4cscn4)cn3C)cn2C)nc1C(=O)NCCCN(C)C`, the outcome in [5], in data set [1], in [7] and in data set [8] was inactive. For the same compound, the inhibition at 100 µM in data set [9] was 42%. Besides, the MIC50 in data set [18] came out at 52 µM (≈ 32.5 µg/mL). For the same compound, the MIC90 in data set [18] stood at 134 µM (≈ 83.9 µg/mL). The entries for the “inhibition (INH)” value in data set [14] and in [15] were 40% and 41%, respectively. The inhibition at 10 µM in data set [2] came to 92.4%. Besides, the cytotoxicity at 24 h, 50 µM in data set [3] came to 20%. The ΔTm in data set [17] came to 20 °C. In data set [19], the K was 2 10^6/M. For the same compound, in [20], the deltaH is -19 kcal/mol. Also, the TdeltaS in [21] is -10.5 kcal/mol. Moreover, the deltaG in data set [22] was -8.46 kcal/mol. Besides, the result in [23] was Active. The same compound yielded a pKa in data set [4] of 9.3.

As to `Cc1ccc(CSCCC(=O)Nc2cc(C(=O)Nc3cc(C(=O)NCCCN(C)C)n(C)c3)n(C)c2)cc1`, in data set [2], the inhibition at 10 µM was 2.57%. Moreover, in [3], the cytotoxicity at 24 h, 50 µM came out at 20%. The pKa in [4] worked out at 9.3.

With `Cn1cc(NC(=O)c2cc(NC(=O)c3ccc(C#Cc4ccccc4)cc3)cn2C)cc1C(=O)NCCCN1CCOCC1`, the inhibition at 100 µM in [5] came out at 40%; in data set [6], 90%; in [1] (ATCC 13880, 2 h), 80%; in data set [7] it was 83%; in data set [8] it was 97%; in [9], 98%. For the same compound, the MIC90 in [10] was found to be 106 µM (≈ 62.8 µg/mL); in [18], 117 µM (≈ 69.1 µg/mL); in data set [24], 88 µM (≈ 52.2 µg/mL); in [11], 51 µM (≈ 30.2 µg/mL); in data set [12], 53 µM (≈ 31.4 µg/mL). The MIC50 in data set [18] amounted to 58 µM (≈ 34.4 µg/mL). Moreover, the “inhibition (INH)” value in data set [14] is on record as 74%; in data set [15], 30%. The inhibition at 10 µM in [2] turned out to be 97.7%. The cytotoxicity at 24 h, 50 µM in [3] turned out to be 20%. Moreover, the ΔTm in data set [17] was 22 °C. Moreover, in [4], the pKa was 7.01.

As to `CN(C)CCCNC(=O)c1cc(NC(=O)c2cc(NC(=O)c3ccc(C#Cc4ccccc4)cc3)cn2C)cn1C`, the inhibition at 100 µM in [9] came to 59%. The inhibition at 10 µM in data set [2] was 126%. Besides, the pKa in [4] is 9.3.

Take `Cc1ccc(CSCCC(=O)Nc2cc(C(=O)Nc3cc(C(=O)NCCCN4CCOCC4)n(C)c3)n(C)c2)cc1`: the inhibition at 10 µM in data set [2] was 2.57%. Also, the Activity entry in data set [16] was “Non-Toxic”. In [4], the pKa was 7.01.

As to `CN(C)CCCNC(=O)c1cc(NC(=O)c2cc(NC(=O)c3cc(NC(=O)c4cscn4)cn3C)cn2C)cn1C`, the cytotoxicity at 24 h, 50 µM in [3] amounted to 20%. In [4], this compound returned a pKa of 9.3.

Values taken from ChEMBL document CHEMBL5523706, “Structure-based drug design of DNA minor groove binders and evaluation of their antibacterial and anticancer properties” (Eur J Med Chem, 2024).
